From PMC12920294, “Optimizing uPAR-targeting radiopeptides for improved tissue distribution: progress towards radionuclide therapy” (European Journal of Nuclear Medicine and Molecular Imaging, 2025)
Read-outs that look alike come from different tables or passages of the source.

What was measured:
[1] = tested on: HEK-uPAR xenograft-bearing mice; conditions: mouse, in vivo
Description: (§1) HEK-uPAR xenografted mice were injected with the respective radiopeptide (5 MBq, 0.5 nmol/mouse, 100 µL 0.9% NaCl containing 0.05% BSA) and sacrificed at 4 h and 24 h after injection. […] The tissues and organs of interest were collected, weighed and counted for activity using a γ-counter (Wallac Wizard 1480, PerkinElmer). […] The results were presented as the average ± SD of n = 3 mice. The time-activity curves were determined for the uptake of [^177Lu]Lu-DOTA-AE105 and [^177Lu]Lu-uPAR-11 in the blood, HEK-uPAR xenografts, kidneys and liver based on non-decay corrected biodistribution data. For the blood, the initial uptake (t = 0) was set as 50% IA/g assuming a blood volume of 2 mL for CD1 nude mice. The initial uptake value (t = 0) for all other organs and tissues was set as 0% IA/g. […] The area under the curves over 48 h after injection (AUC0h→48 h) was calculated using GraphPad Prism software (version 10.1.1). Statistical analyses were performed by applying a one-way ANOVA test with a Dunnet’s multiple comparison post‐test to compare the data of the new radiopeptides with those of [^177Lu]Lu-DOTA-AE105 and a Tukey’s multiple comparisons post‐test to compare the novel radiopeptides among them. A p-value of < 0.05 was considered a statistically significant difference using GraphPad Prism software (version 10.1.1).

physchem = type: physicochemical; conditions: pH 7.4
Description: The ^177Lu-labeled peptides (50 MBq/nmol) were incubated in mouse or human blood plasma (10 MBq/200 µL) over an incubation period of 24 h at 37 °C. Aliquots and control samples of the radiopeptides diluted in saline were analyzed after 1 h, 4 h and 24 h using thin layer chromatography (TLC) as previously reported (Supplementary Material). The distribution coefficients (logD values) of the ^177Lu-labeled peptides (50 MBq/nmol) were determined using a shake-flask method according to a previously published procedure (Supplementary Material). Methods: The radiopeptides (50 MBq/nmol) were diluted in phosphate buffered saline (PBS) pH 7.4 to obtain an activity concentration of 10 MBq/500 µL. A sample of this radiopeptide solution (~0.5 MBq, 25 µL, 0.01 nmol) was added to a mixture of PBS pH 7.4 (1475 µL) and n-octanol (1500 µL). The vials were vortexed vigorously for 1 min followed by centrifugation (560 rcf, 25°C, 6 min) for phase separation. Aliquots were taken from each phase and measured in a γ-counter (Wallac Wizard 1480, PerkinElmer). The distribution coefficients were calculated as the logarithmic value of the ratio of counts per minute (cpm) measured in the n-octanol phase relative to the cpm measured in the PBS phase. The results were listed as average ± SD of the data obtained from 3 independent experiments, each performed with five replicates.

in vivo = conditions: CD1 nude, mouse, 0.5 nmol/mouse, total radioactivity
Description: as §1

[2] = type: in vitro ADME; conditions: 1 µM
Description: The ^177Lu-labeled peptides (50 MBq/nmol) were incubated in mouse or human blood plasma (10 MBq/200 µL) over an incubation period of 24 h at 37 °C. Aliquots and control samples of the radiopeptides diluted in saline were analyzed after 1 h, 4 h and 24 h using thin layer chromatography (TLC) as previously reported (Supplementary Material). The distribution coefficients (logD values) of the ^177Lu-labeled peptides (50 MBq/nmol) were determined using a shake-flask method according to a previously published procedure (Supplementary Material).
Methods: A sample of each radiopeptide (50 MBq/nmol) was added to mouse blood plasma (Lot: 32321, Rockland Immunochemicals Inc., USA) or to human blood plasma (Stiftung Blutspende SRK Aargau-Solothurn, Switzerland) to obtain an activity concentration of 10 MBq/200 µL. The test samples were incubated at 37 °C for up to 24 h. Control samples referred to the radiopeptides which were instead diluted in saline at an activity concentration of 10 MBq/200 µL. Aliquots of each sample (2 µL, ~100 kBq) were taken after 1 h, 4 h and 24 h and investigated by means of thin layer chromatography (TLC). The employed method involved reversed-phase TLC plates (MERCK Analytical Chromatography, TLC Silica gel 60 RP-18 F254s) as stationary phase and ACN/citrate buffer (3:7; v/v; pH 5.5) as mobile phase. After the eluent reached the front line, the TLC plates were dried and exposed to a phosphor screen (Super resolution screen PSR10450013, PerkinElmer) for 1 min. The respective screen was developed using a storage phosphor system (Cyclone Plus, PerkinElmer) and analyzed using the OptiQuant Software (version 5.0, Bright Instrument Co Ltd., PerkinElmer).

| Compound | Xgrft-to-liver ratio [1] | logD (physchem) | tissue uptake at 4 h (in vivo; Blood uptake) | tissue uptake at 24 h (in vivo; Blood uptake) | tissue uptake at 4 h (in vivo; Bone uptake) | tissue uptake at 24 h (in vivo; Bone uptake) | tissue uptake at 4 h (in vivo; Brain uptake) | tissue uptake at 24 h (in vivo; Brain uptake) | tissue uptake at 4 h (in vivo; HEK-uPAR xenograft uptake) | tissue uptake at 24 h (in vivo; HEK-uPAR xenograft uptake) | tissue uptake at 4 h (in vivo; Heart uptake) | tissue uptake at 24 h (in vivo; Heart uptake) | tissue uptake at 4 h (in vivo; Intestines uptake) | tissue uptake at 24 h (in vivo; Intestines uptake) | tissue uptake at 4 h (in vivo; Kidneys uptake) | tissue uptake at 24 h (in vivo; Kidneys uptake) | tissue uptake at 4 h (in vivo; Liver uptake) | tissue uptake at 24 h (in vivo; Liver uptake) | tissue uptake at 4 h (in vivo; Lung uptake) | tissue uptake at 24 h (in vivo; Lung uptake) | other results |
| --- | --- | --- | --- | --- | --- | --- | --- | --- | --- | --- | --- | --- | --- | --- | --- | --- | --- | --- | --- | --- | --- |
| Cc1ccc(CCCC(=O)NCCOCCOCCOCCC(=O)NCCCC[C@H](NC(=O)CN2CCN(CC(=O)O)CCN(CC(=O)O)CCN(CC(=O)O)CC2)C(=O)N[C@@H](CC(=O)O)C(=O)N[C@@H](CC2CCCCC2)C(=O)N[C@@H](Cc2ccccc2)C(=O)N[C@H](CO)C(=O)N[C@H](CCCNC(=N)N)C(=O)N[C@@H](Cc2ccc(O)cc2)C(=O)N[C@@H](CC(C)C)C(=O)N[C@@H](Cc2c[nH]c3ccccc23)C(=O)N[C@@H](CO)C(N)=O)cc1 [[^177Lu]Lu-uPAR-15, metal not drawn] | 6.5 ± 1.7 | -0.03 ± 0.01 | 4.5 ± 0.5 %ID/g | 0.04 ± 0.01 %ID/g | 0.66 ± 0.05 %ID/g | 0.12 ± 0.03 %ID/g | 0.1 ± 0.02 %ID/g | < 0.03 %ID/g | 12 ± 1 %ID/g | 3.1 ± 0.8 %ID/g | 1.6 ± 0.2 %ID/g | 0.13 ± 0.01 %ID/g | 0.74 ± 0.15 %ID/g | 0.16 ± 0.03 %ID/g | 3.9 ± 0.6 %ID/g | 2 ± 0.3 %ID/g | 1.6 ± 0.2 %ID/g | 0.5 ± 0.11 %ID/g | 2.6 ± 0.4 %ID/g | 0.27 ± 0.06 %ID/g | tissue uptake at 4 h (in vivo; Muscle uptake): 0.41 ± 0.1 %ID/g; tissue uptake at 24 h (in vivo; Muscle uptake): 0.05 ± 0.01 %ID/g; tissue uptake at 4 h (in vivo; Pancreas uptake): 0.61 ± 0.1 %ID/g; tissue uptake at 24 h (in vivo; Pancreas uptake): 0.09 ± 0.02 %ID/g; tissue uptake at 4 h (in vivo; Salivary glands uptake): 1.2 ± 0.2 %ID/g; tissue uptake at 24 h (in vivo; Salivary glands uptake): 0.21 ± 0.03 %ID/g; tissue uptake at 4 h (in vivo; Spleen uptake): 0.93 ± 0.09 %ID/g; tissue uptake at 24 h (in vivo; Spleen uptake): 0.51 ± 0.23 %ID/g; tissue uptake at 4 h (in vivo; Stomach uptake): 0.67 ± 0.11 %ID/g; tissue uptake at 24 h (in vivo; Stomach uptake): 0.12 ± 0.03 %ID/g; Human blood plasma stability, intact radiopeptide ([2]; 1 h): 100 ± 1%; Mouse blood plasma stability, intact radiopeptide ([2]; 1 h): 100 ± 1%; Human blood plasma stability, intact radiopeptide ([2]; 4 h): 99 ± 1%; Mouse blood plasma stability, intact radiopeptide ([2]; 4 h): 99 ± 1%; Human blood plasma stability, intact radiopeptide ([2]; 24 h): 96 ± 1%; Mouse blood plasma stability, intact radiopeptide ([2]; 24 h): 94 ± 2% |
| Cc1ccc(CCCC(=O)NCCOCCOCCOCCOCCC(=O)NCCCC[C@H](NC(=O)CC[C@H](C(=O)O)N2CCN(CC(=O)O)CCN(CC(=O)O)CCN(CC(=O)O)CC2)C(=O)N[C@@H](CC(=O)O)C(=O)N[C@@H](CC2CCCCC2)C(=O)N[C@@H](Cc2ccccc2)C(=O)N[C@H](CO)C(=O)N[C@H](CCCNC(=N)N)C(=O)N[C@@H](Cc2ccc(O)cc2)C(=O)N[C@@H](CC(C)C)C(=O)N[C@@H](Cc2c[nH]c3ccccc23)C(=O)N[C@@H](CO)C(N)=O)cc1 [[^177Lu]Lu-uPAR-17, metal not drawn] | 10 ± 3 | -1.56 ± 0.03 | 6 ± 1.3 %ID/g | < 0.03 %ID/g | 0.82 ± 0.1 %ID/g | 0.06 ± 0.01 %ID/g | 0.13 ± 0.04 %ID/g | < 0.03 %ID/g | 8 ± 0.7 %ID/g | 2.1 ± 0.5 %ID/g | 2.2 ± 0.4 %ID/g | 0.07 ± 0.01 %ID/g | 0.87 ± 0.18 %ID/g | 0.05 ± 0.01 %ID/g | 4.6 ± 0.3 %ID/g | 1.3 to 1.7 %ID/g | 1.7 ± 0.2 %ID/g | 0.21 ± 0.03 %ID/g | 3 ± 0.7 %ID/g | 0.12 ± 0.02 %ID/g | Kidneys uptake ([1]; CD1 nude, 0.5 nmol/mouse, 24 h): 1.3 ± 0.2 %IA/g; tissue uptake at 4 h (in vivo; Muscle uptake): 0.57 ± 0.1 %ID/g; tissue uptake at 24 h (in vivo; Muscle uptake): < 0.03 %ID/g; tissue uptake at 4 h (in vivo; Pancreas uptake): 0.82 ± 0.17 %ID/g; tissue uptake at 24 h (in vivo; Pancreas uptake): 0.04 ± 0.01 %ID/g; tissue uptake at 4 h (in vivo; Salivary glands uptake): 1.2 ± 0.3 %ID/g; tissue uptake at 24 h (in vivo; Salivary glands uptake): 0.12 ± 0.03 %ID/g; tissue uptake at 4 h (in vivo; Spleen uptake): 1 ± 0.2 %ID/g; tissue uptake at 24 h (in vivo; Spleen uptake): 0.13 ± 0.02 %ID/g; tissue uptake at 4 h (in vivo; Stomach uptake): 0.73 ± 0.29 %ID/g; tissue uptake at 24 h (in vivo; Stomach uptake): 0.05 ± 0.01 %ID/g; Human blood plasma stability, intact radiopeptide ([2]; 1 h): 100 ± 1%; Mouse blood plasma stability, intact radiopeptide ([2]; 1 h): 100 ± 1%; Human blood plasma stability, intact radiopeptide ([2]; 4 h): 99 ± 1%; Mouse blood plasma stability, intact radiopeptide ([2]; 4 h): 97 ± 2%; Human blood plasma stability, intact radiopeptide ([2]; 24 h): 96 ± 1%; Mouse blood plasma stability, intact radiopeptide ([2]; 24 h): 61 ± 9% |
| Cc1ccc(CCCC(=O)NCCOCCOCCOCCOCCOCCC(=O)NCCCC[C@H](NC(=O)CN2CCN(CC(=O)O)CCN(CC(=O)O)CCN(CC(=O)O)CC2)C(=O)N[C@@H](CC(=O)O)C(=O)N[C@@H](CC2CCCCC2)C(=O)N[C@@H](Cc2ccccc2)C(=O)N[C@H](CO)C(=O)N[C@H](CCCNC(=N)N)C(=O)N[C@@H](Cc2ccc(O)cc2)C(=O)N[C@@H](CC(C)C)C(=O)N[C@@H](Cc2c[nH]c3ccccc23)C(=O)N[C@@H](CO)C(N)=O)cc1 [[^177Lu]Lu-uPAR-18, metal not drawn] | 20 ± 3 | -0.5 ± 0.07 | 3.4 ± 0.7 %ID/g | 0.05 %ID/g | 0.5 ± 0.04 %ID/g | 0.19 ± 0.01 %ID/g | 0.08 ± 0.01 %ID/g | < 0.03 %ID/g | 14 ± 1 %ID/g | 7.3 ± 0.4 %ID/g | 1.3 ± 0.2 %ID/g | 0.12 ± 0.01 %ID/g | 0.58 ± 0.14 %ID/g | 0.17 ± 0.02 %ID/g | 3.7 ± 0.4 %ID/g | 2.1 ± 0.2 %ID/g | 1.2 ± 0.1 %ID/g | 0.38 ± 0.06 %ID/g | 2.1 ± 0.4 %ID/g | 0.29 ± 0.02 %ID/g | tissue uptake at 4 h (in vivo; Muscle uptake): 0.37 ± 0.03 %ID/g; tissue uptake at 24 h (in vivo; Muscle uptake): 0.06 ± 0.01 %ID/g; tissue uptake at 4 h (in vivo; Pancreas uptake): 0.63 ± 0.27 %ID/g; tissue uptake at 24 h (in vivo; Pancreas uptake): 0.09 ± 0.01 %ID/g; tissue uptake at 4 h (in vivo; Salivary glands uptake): 0.87 ± 0.2 %ID/g; tissue uptake at 24 h (in vivo; Salivary glands uptake): 0.23 ± 0.03 %ID/g; tissue uptake at 4 h (in vivo; Spleen uptake): 0.77 ± 0.01 %ID/g; tissue uptake at 24 h (in vivo; Spleen uptake): 0.42 ± 0.04 %ID/g; tissue uptake at 4 h (in vivo; Stomach uptake): 0.54 ± 0.12 %ID/g; tissue uptake at 24 h (in vivo; Stomach uptake): 0.11 ± 0.02 %ID/g; Human blood plasma stability, intact radiopeptide ([2]; 1 h): 100 ± 1%; Mouse blood plasma stability, intact radiopeptide ([2]; 1 h): 100 ± 1%; Human blood plasma stability, intact radiopeptide ([2]; 4 h): 99 ± 1%; Mouse blood plasma stability, intact radiopeptide ([2]; 4 h): 99 ± 2%; Human blood plasma stability, intact radiopeptide ([2]; 24 h): 95 ± 2%; Mouse blood plasma stability, intact radiopeptide ([2]; 24 h): 89 ± 3% |
